Data reported in article PMC8836561, “Poly-Lysine Dendritic Nanocarrier to Target Epidermal Growth Factor Receptor Overexpressed Breast Cancer for Methotrexate Delivery” (Materials, 2022).
Values joined by “and” are separate entries in the source; they are usually repeats but may differ in a detail not shown here. Identical values can stand only once.

Tests used:
[1] = test system: MDA-MB-231 cells; assay: In vitro binding of rhodamine B-conjugated peptides, MDA-MB-231; format: cell-based; settings: MDA-MB-231, 2 h, 37 °C, flow cytometry and confocal imaging
Experimental: Figure S4. Binding activities of rho B-conjugated peptides after incubating with MDA-MB-231 cells for 2 hours at 37°C. a) Untreated control MDA-MB-231 cell. MDA-MB-231 cells binding with b) E1, c) E2, d) E3, e) E4, and f) E5. g) Binding affinity percentages of rho B- conjugated peptides. […]
Figure S6. Internalization of peptides in MDA -MB-231 cells. MDA-MB-231 (EGFR overexpressed) cells were incubated with E1 to E5 peptides (50 µM) for 2 hours at 37°C. Rho-B alone was given as the control. The cells were nuclear stained […]
(1 picture or pasted object on this page, not shown here)

[2] = test system: MDA-MB-231 (EGFR overexpressed) cells; assay: Receptor binding ability by flow cytometry, MDA-MB-231; format: cell-based; settings: fluorescein MTX 5 µg/mL or fluorescein MTX-conjugated system 8.6 µg/mL (equivalent MTX), 24 h
Experimental: (§1) Then fluorescein MTX (5 µg/mL) and fluorescein MTX-conjugated systems (8.6 µg/mL; having equivalent MTX concentrations) were added to each well and incubated for 24 h. After incubation, the cells were trypsinized and analyzed by flow cytometry. The cells without MTX or DDS treatment were taken as the control.

[3] = test system: SiHa (EGFR negative) cells; assay: Receptor binding ability by flow cytometry, SiHa; format: cell-based; settings: fluorescein MTX 5 µg/mL or fluorescein MTX-conjugated system 8.6 µg/mL (equivalent MTX), 24 h
Experimental: as §1

[4] = test system: MDA-MB-231 cells; assay: Cytotoxicity by MTT assay, MDA-MB-231; format: cell-based; settings: MDA-MB-231 (receptor positive), MTX 5 µg/mL or nanocarrier system at equivalent drug concentration (8.6 µg/mL), 48 h, triplicate
Experimental: (§2) The cytotoxic efficacy of MTX–G–P4LDN–E2 was analyzed by an MTT assay. The cells were seeded in a 96-well plate at a density of 5000 cells per well. […] After 48 h of incubation, the cells were washed twice with 1X PBS, followed by the addition of MTT reagent (100 μL; 5 mg/mL in PBS) and 100 μL serum-free media to all wells and incubated for 3 h. Then DMSO (100 µL) was added to solubilize the formazan crystals, formed in viable cells. After 20 min, the optical density (OD) was measured at 570 nm using a microplate reader (BioRad). The percentage cell viability was calculated as 100 percentage cytotoxicity, where: % cytotoxicity=O.D of control−O.D of test /O.D of control[…]

[5] = test system: SiHa cells; assay: Cytotoxicity by MTT assay, SiHa; format: cell-based; settings: SiHa (receptor negative), MTX 5 µg/mL or nanocarrier system at equivalent drug concentration (8.6 µg/mL), 48 h, triplicate
Experimental: as §2

[6] = test system: MDA-MB-231 cells; assay: Cell cycle analysis by flow cytometry (propidium iodide), MDA-MB-231; format: cell-based; settings: MDA-MB-231, 24 h incubation, FACS
Experimental: (§3) The cell cycle analysis was conducted by flow cytometry using the manufacturer’s protocol. Briefly, MDA-MB-231 and SiHa cells (1 × 10^5cells/well) were incubated with MTX and MTX–G–P4LDN–E2 for 24 h, trypsinized, and centrifuged to collect the pellet. The cells were then fixed with pre-cooled 70% ethanol at 4 °C for 45 min. After fixation, the pellet was collected carefully after centrifugation at 850× g for 5 min. It was then washed twice with 1X PBS, and 50 μL RNase (100 μg/mL) was added and incubated for 45 min at 37 °C. Then, the cells were washed with 1X PBS and stained with propidium iodide (100 μL, 50 μg/mL) for 10 min. The cellular DNA was analyzed by flow cytometer, and the percentage of cells in each phase of the cell cycle was analyzed by BD FACS Diva software.

[7] = test system: SiHa cells; assay: Cell cycle analysis by flow cytometry (propidium iodide), SiHa; format: cell-based; settings: 24 h incubation, FACS
Experimental: as §3

[8] = test system: MDA-MB-231 tumor; assay: Anti-tumor efficacy in MDA-MB-231 tumor-bearing NOD-SCID mice; format: in vivo; settings: female NOD-SCID mice, tail vein, 5 times for 20 days
Experimental: For analyzing the efficacy of the nanocarrier systems, fifteen male and fifteen female NOD-SCID mice were assigned to three groups each (n = 3 in first group and n = 6 in second and third groups). Tumor was implanted by injecting cells subcutaneously in the dorsolateral flank with a concentration of 5 × 10^6 MDA-MB-231 cells to female NOD-SCID mice. When the volume of tumor reached 500–1000 mm^3, the first group of animals, serving as the control group, was given PBS (5 mL/kg body weight). The second group was given free-drug MTX (20 mg/kg) through the tail vein. The third group received MTX–G–P4LDN–E2 (35 mg/kg, equivalent to the MTX concentration) through the tail vein, and the treatment was given to the mice 5 times for 20 days.
The tumor volume and body weight of the animals were measured before each injection. The body weight and tumor volume on the final day (24th day) was also calculated. A vernier caliper was used to measure the tumor, and the tumor volume was calculated using the formula: Tumor volume (mm^3)=(length in mm)×(width in mm)^2/2
The treatment was started when the tumor volume reached 500–1000 mm^3. There were 3 groups (n = 3 for control group and n = 6 for treatment groups). First group received PBS (5 mL/kg body weight) was treated as the control. […] On every injection day, the tumor volume as well as the body weight of the animals were measured.

[9] = test system: MDA-MB-231 (EGFR overexpressed) cells; assay: Functional evaluation by confocal microscopy, MDA-MB-231; format: cell-based; settings: fluorescein MTX 5 µg/mL or conjugated system 8.6 µg/mL, 24 h
Experimental: (§4) MDA-MB-231 (EGFR overexpressed) and SiHa (EGFR negative) cells were grown on coverslips inside the 6-well plates, and the receptor binding ability of MTX–G–P4LDN–E2 was analyzed by confocal microscopy. Fluorescein methotrexate (5 µg/mL) and fluorescein MTX conjugated system (8.6 µg/mL; having equivalent methotrexate concentrations) were added to the wells and incubated for 24 h. The cells without MTX or DDS treatment were taken as the control. Then, Hoechst 33342 (10 µg/mL) was added and incubated for 15 min. The cells were observed under a confocal laser scanning microscope at suitable magnifications.

[10] = test system: SiHa (EGFR negative) cells; assay: Functional evaluation by confocal microscopy, SiHa; format: cell-based; settings: fluorescein MTX 5 µg/mL or conjugated system 8.6 µg/mL, 24 h
Experimental: as §4

Compound	Binding efficacy of the short peptides in vitro [1]	Binding ability (% of cells, P2) [2]	Binding ability (% of cells, P2) [3] [%]	Cytotoxicity [4] [%]	Cytotoxicity [5] [%]	Percentage of cells in G0 [6] [%]	Percentage of cells in G1 [6] [%]	Percentage of cells in G2-M [6] [%]	Percentage of cells in S [6] [%]	Percentage of cells in G0 [7] [%]	Percentage of cells in G1 [7] [%]	Percentage of cells in G2-M [7] [%]	Percentage of cells in S [7] [%]	Average tumor volume at the end of the treatment ([8]; MTX 20 mg/kg or MTX–G–P4LDN–E2 35 mg/kg (equivalent MTX), day 25, n = 6, mean ± SD, control 2890 ± 85.440) [mm^3]	Reduction in tumor volume compared to control ([8]; MTX 20 mg/kg or MTX–G–P4LDN–E2 35 mg/kg, day 25, n = 6) [%]	Binding (fluorescence) in confocal images [9]	Binding (fluorescence) in confocal images [10]
ARSHVGYTGAR [E2, EGFR-specific short peptide …]	highest binding efficacy																
CN(Cc1cnc2nc(N)nc(N)c2n1)c1ccc(C(=O)N[C@@H](CCC(=O)O)C(=O)O)cc1 [MTX, methotrexate]		99.6% and > 99%	82.4	63	57	9	52.1	14.9	19.1	14.4	64.3	10.7	8.8	661.8 ± 209.067	77.2	bound with the MDA-MB-231 cells similarly	only the free drug showed fluorescence
